Measurements: patent US12605374B2, “Methods for drug screening and compositions useful for the inhibition of cell proliferation and/or cell survival” (The Brigham and Women's Hospital, Inc., priority 2019, dated 2026)
Entries after “also recorded” stand apart in the source; their conditions may differ.

Columns and labels:
[1] = system: Human osteosarcoma cells (U-2 OS); test: EdU proliferation assay in human cell line; type: cell-based; conditions: osteoblastic / immortalized cells (U-2 OS), four hours after drug introduction; positive control c-Myc inhibitor 10058-F4
Method: FIG. 16 (A)-(C): Effect of DA5 in human cell culture. Proliferation of osteoblastic cells was measured following introduction of DA5.
Human osteosarcoma cells (U-2 OS) were obtained from ATCC (HTB-96) and re-suspended in McCoy's 5a medium (ATCC 30-2007) containing 10% FBS and penicillin/streptomycin. Cells were passaged at least 5 times before use in proliferation assays. To perform the proliferation assay, cells were trypsinized using standard protocols, plated at 1000 cells per well in 96-well clear-bottom black cell culture treated plates, and allowed 24 hours to attach. Compounds of interest were dissolved in DMSO and introduced at an overall DMSO concentration not exceeding 0.1% by volume. Four hours after drug introduction, cells were stained and fixed using the protocol described in the Click-iT EdU Alexa Fluor 488 Imaging kit (Thermo Fisher), with Hoescht staining used to identify total cell numbers. Each well was imaged using a Nikon Eclipse Ti Epifluorescent microscope with automated stage and counts of dividing and total cells were obtained in an automated fashion using Nikon's NIS Elements software. Percent of dividing cells reported is the result of at least 4 replicates. Controls were given the same DMSO concentration by volume as compound-treated wells.

[2] = target: T1, recombinant human Topoisomerase I (Homo sapiens, UniProt P11387); test: Topoisomerase I and DNA binding gel electrophoresis assay; type: biochemical
T1 construct: purchased TopoGEN, Inc. TG2005H
T1 sequence (P11387 1-765): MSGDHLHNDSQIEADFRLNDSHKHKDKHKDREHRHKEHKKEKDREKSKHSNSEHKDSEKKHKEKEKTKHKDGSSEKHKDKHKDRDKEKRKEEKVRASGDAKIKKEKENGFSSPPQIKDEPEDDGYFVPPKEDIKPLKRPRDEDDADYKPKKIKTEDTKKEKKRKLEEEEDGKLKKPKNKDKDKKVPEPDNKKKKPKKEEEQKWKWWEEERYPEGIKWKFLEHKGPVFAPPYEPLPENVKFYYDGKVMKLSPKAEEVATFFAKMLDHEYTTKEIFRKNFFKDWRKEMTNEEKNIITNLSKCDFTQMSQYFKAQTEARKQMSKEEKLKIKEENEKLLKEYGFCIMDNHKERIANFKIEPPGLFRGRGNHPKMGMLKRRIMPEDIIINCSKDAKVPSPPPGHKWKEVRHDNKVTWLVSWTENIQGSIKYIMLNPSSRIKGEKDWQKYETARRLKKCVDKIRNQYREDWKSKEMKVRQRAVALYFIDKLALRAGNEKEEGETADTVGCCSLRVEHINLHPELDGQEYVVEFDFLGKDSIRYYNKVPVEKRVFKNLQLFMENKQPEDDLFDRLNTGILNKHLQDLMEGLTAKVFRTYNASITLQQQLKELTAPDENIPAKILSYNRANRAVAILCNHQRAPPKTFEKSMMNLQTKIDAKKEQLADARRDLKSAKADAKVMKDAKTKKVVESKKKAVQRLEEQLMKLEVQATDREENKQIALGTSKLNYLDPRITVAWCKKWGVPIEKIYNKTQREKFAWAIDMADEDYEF
Method: FIG. 12: Topoisomerase I and DNA binding assay for DA5. The effect of DA5 on Topoisomerase-mediated DNA unwinding is measured through a gel electrophoresis assay (see Methods).
0.5 ug of pHOT-1 supercoiled DNA (TopoGEN, Inc. TG2030-2) was combined with 2× Topoisomerase I assay buffer (50 mM Tris-HCL (ph7.9), 1 mM EDTA, 1 mM DTT, 20% (v/v) glycerol, 50 mM NaCl), nuclease free water and either DMSO vehicle control, m-AMSA positive control (100-1000 uM; TopoGEN, Inc. […] TG2005H) was added to treatments corresponding to lanes 3-12 with 2 ul of dilution buffer (5 mM Tris-HCL (pH 7.9), 1 mM EDTA, 1 mM DTT, 50% (v/v) glycerol, 500 mM NaCl) added to control treatments lacking enzyme (lanes 2, 13 and 14). Reactions were mixed and incubated at 37° C. for 30 minutes. Reactions were terminated with the addition of 20 ul nuclease free water and 50 ul of 1-butanol (water-saturated) followed by vortex and centrifugation at 13,000 rpm for 1 minute. The lower aqueous phase was removed and added to 50 ul chloroform/isoamyl alcohol (24/1) and 50 ul of 2×STEB buffer (40% (w/v) sucrose, 100 mM Tris-HCL (pH 8), 1 mM EDTA, 0.5 mg/ml bromophenol blue) followed by mixing and centrifugation at 13,000 rpm for 1 minute. […] The gel was stained with ethidium bromide for 15 minutes followed by de-staining in distilled water for 10 minutes. Gels were exposed and images acquired using the iBrightFL1000 gel documentation system (Invitrogen).

Phospholipase A2 = Phospholipase A2 (Apis mellifera, UniProt P00630); type: biochemical
zebrafish embryos = test: DA5 dose, time course and washout analysis of developmental delay/arrest; type: in vivo
Source text: FIG. 4 (A)-(E): Function of delay/arrest compounds. 7 of the 10 compounds predicted as having a delay/arrest phenotype with the highest confidence caused obvious but divergent delay/arrest effects (A). For chemical structures associated with these Chembridge IDs see Figure S13. (www.chembridge.com). Some arrested development at shield stage, while others caused a slower developmental progression.
We reasoned that this was likely due to differences in the target affinities of the various DA compounds.

[3] = system: Phospholipase D (Streptomyces chromofuscus); test: In vitro Phospholipase D activity assay (Amplex Red kit); type: biochemical; conditions: listed as DA5
Phospholipase C = target: T2, Phospholipase C (Bacillus cereus, UniProt P09598); test: In vitro Phospholipase C activity assay (EnzChek Direct kit); type: biochemical
T2 construct: purchased Thermo Fisher
Method: Phospholipase D, C, and A2 activity were measured in vitro using commercial kits. For Phospholipase D, the Amplex Red Phospholipase D Assay Kit (Thermo Fisher) was used with Phospholipase D (Streptomyces chromofuscus—Enzo Life Sciences) added, and FIPI (4-Fluoro-N-(2-(4-(5-fluoro-1H-indol-1-yl)piperidin-1-yl)ethyl)benzamide, 5-Fluoro-2-indolyl deschlorohalopemide) hydrochloride (Sigma) acting as a positive control. To assay Phospholipase A2 activity, we used an EnzChek Phospholipase A2 Assay kit (Thermo Fisher) with Manoalide (Santa Cruz) as a positive control. To assay Phospholipase C activity, we used an EnzChek Direct Phospholipase C Assay Kit (Thermo Fisher) with D609 (Sigma) as a positive control. Tyrosinase activity was measured using a colorimetric Tyrosinase inhibitor screening kit (BioVision) with PTU as a positive control. For each assay, solutions were prepared in 96-well black clear bottom plates and read using a FLUOstar Omega plate reader at the wavelengths recommended by the respective manufacturers, with each measurement representing the average of at least 4 plate wells.

Chain of Phospholipase A2 (P00630 34-167 limits assumed): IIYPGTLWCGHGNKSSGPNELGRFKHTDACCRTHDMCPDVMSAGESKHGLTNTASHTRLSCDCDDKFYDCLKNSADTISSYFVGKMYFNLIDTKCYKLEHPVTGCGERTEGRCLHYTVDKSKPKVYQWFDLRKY
T2 sequence (P09598 39-283 limits assumed): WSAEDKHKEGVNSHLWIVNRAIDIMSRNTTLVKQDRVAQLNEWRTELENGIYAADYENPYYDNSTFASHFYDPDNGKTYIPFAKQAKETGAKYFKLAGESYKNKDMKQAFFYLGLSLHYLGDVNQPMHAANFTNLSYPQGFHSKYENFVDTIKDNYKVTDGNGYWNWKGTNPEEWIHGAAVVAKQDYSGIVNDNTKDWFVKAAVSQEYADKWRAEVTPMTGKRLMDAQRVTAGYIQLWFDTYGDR

For `CCC1(CC)CCN(C(=O)c2cc(COc3ccc4ncccc4c3)on2)C1` [ChemBridge ID 65692859, 6-([3-[(3,3-diethylpyrrolidin-1-yl)carbonyl]isoxazol-5-yl]methoxy)quinoline], which “suppression of cell proliferation” value [1] is on record?
Its value is “greater than that seen with positive control”.

What about the “DNA-binding / DNA intercalation / inhibition of Topoisomerase I” value ([2]; DNA intercalation analysis, listed as DA5) of the same molecule?
Its value is “not due to DNA-binding or inhibition of Topoisomerase (TOPO) I; also recorded: not observed”.

And the “effect on Topoisomerase-mediated DNA unwinding (gel electrophoresis)” value ([2]; concentrations up to 100 mM (so in the source), versus DMSO)?
The value was “no more effect on DNA cleavage than DMSO”.

And the “activity of phospholipase A2” value (Phospholipase A2)?
The value was “increased activity”.

And the “time course analysis: effect in more developed embryos” value (zebrafish embryos; introduced at 24 hours post fertilization and beyond)?
Its value is “mortality being almost immediate”.

And the “time course analysis: effect on early development” value (zebrafish embryos; introduced at early stages (<12 h), up to and during gastrulation, listed as DA5)?
The value was “arrest up to and during gastrulation immediately after introduction; also recorded: arrested development at any stage of early (<12 h) development”.

What about the developmental phenotype (zebrafish embryos; introduced in zebrafish embryo medium at 5 μM) of the same molecule?
Its developmental phenotype is “developmental delay”.

And the developmental phenotype (zebrafish embryos; introduced in zebrafish embryo medium at 10 μM)?
Its developmental phenotype is “sphere stage arrest”.

And the “recovery of embryos after washout” value (zebrafish embryos; washout of compound)?
Its value is “did not allow embryos to recover”.

And the “activity of phospholipase D” value [3]?
Its value is “decrease in the activity; also recorded: inhibit phospholipase D activity”.

What about the “activity of phospholipase C” value (Phospholipase C) of the same molecule?
Its value is “increased activity”.
